In patent US10085955B2, “Methods and compositions for treatment of demyelinating diseases” (Pathologica LLC, priority 2013, dated 2018):

System: PGE2 production in carrageenan air pouch
Assay: Carrageenan air pouch model
Assay type: in vivo, Lewis rats
Excerpt: Injection of air subcutaneously will induce the formation of a connective tissue cavity lined with cells that resemble and function like a synovial lining. This method is commonly known as the Air Pouch Model and is a useful animal model of inflammation that can be generated in a relatively short period of time. The air pouch may be created by subcutaneous (SQ) injection of a volume of sterile air in the dorsal neck region. The model may be used to test the efficacy and potency of compounds such as polyamine analogues and polyamine biosynthesis inhibitors such as MGBG in reducing various cellular and biochemical indicators of inflammation when administered as an oral (PO) gavage administration. Healthy Male Lewis rats (Charles River Laboratories, Wilmington, Mass.) weighing between 175-200 g were used. […] A correction factor of 1.49 was used to account for the dihydrochloride salt/monohydrate form of MGBG. […] Air pouches were formed on the dorsum of the rats during the last 4 days of MGBG or vehicle administration prior to carrageenan injection. Briefly, rats were anesthetized with isoflurane, during which dorsal hair was removed and 20 mL of sterile air was injected subcutaneously into the intrascapular region. Pouches were allowed to develop for the next 4 days, with re-inflation (to maintain pouch volume) of pouches 1 day prior to carrageenan injection. One hour prior to carrageenan injection, animals were given their last dose of drug (MGBG, vehicle, naproxen, or dexamethasone). A 1% suspension of carrageenan (2 mL; FMC BioPolyer, Philadelphia, Pa.) suspended in saline was injected into the pouch cavity. At either 3 hours or 24 hours post-carrageenan injection, rats were euthanized by CO2 asphyxiation and 2.5 mL of PBS (Sigma Chemical, St. Louis, Mo.) was injected directly into the pouch. The pouch was opened with surgical scissors and the pouch fluid was collected using a transfer pipette. One aliquot was collected for measurement of total cell count with differential, and the other aliquot for PGE2 determination. […]

CC(/C=N/NC(=N)N)=N\NC(=N)N [MGBG, 1,1′ [methylethanediylidene]dinitrilodiguanidine]
production of PGE2 (inflammatory and basal levels) (rat pouch fluid, 3 or 24 hours post-carrageenan, naproxen 10 mg/kg, dexamethasone 1 mg/kg): selectively inhibited peak inflammatory production of PGE2, without affecting basal levels | efficacy, changes relative to control indicative of reduced inflammation (rats, MGBG 1-60 mg/kg PO once daily 6 days): efficacious
